pKi: −log10 of the molar value.

The target of one assay is ATR kinase (full-length ATR) (Homo sapiens (Human), UniProt Q13535). Briefly: ATR inhibition assay (radioactive-phosphate incorporation). Type of assay: biochemical.
Sequence of ATR kinase (full-length ATR) (Q13535 whole entry): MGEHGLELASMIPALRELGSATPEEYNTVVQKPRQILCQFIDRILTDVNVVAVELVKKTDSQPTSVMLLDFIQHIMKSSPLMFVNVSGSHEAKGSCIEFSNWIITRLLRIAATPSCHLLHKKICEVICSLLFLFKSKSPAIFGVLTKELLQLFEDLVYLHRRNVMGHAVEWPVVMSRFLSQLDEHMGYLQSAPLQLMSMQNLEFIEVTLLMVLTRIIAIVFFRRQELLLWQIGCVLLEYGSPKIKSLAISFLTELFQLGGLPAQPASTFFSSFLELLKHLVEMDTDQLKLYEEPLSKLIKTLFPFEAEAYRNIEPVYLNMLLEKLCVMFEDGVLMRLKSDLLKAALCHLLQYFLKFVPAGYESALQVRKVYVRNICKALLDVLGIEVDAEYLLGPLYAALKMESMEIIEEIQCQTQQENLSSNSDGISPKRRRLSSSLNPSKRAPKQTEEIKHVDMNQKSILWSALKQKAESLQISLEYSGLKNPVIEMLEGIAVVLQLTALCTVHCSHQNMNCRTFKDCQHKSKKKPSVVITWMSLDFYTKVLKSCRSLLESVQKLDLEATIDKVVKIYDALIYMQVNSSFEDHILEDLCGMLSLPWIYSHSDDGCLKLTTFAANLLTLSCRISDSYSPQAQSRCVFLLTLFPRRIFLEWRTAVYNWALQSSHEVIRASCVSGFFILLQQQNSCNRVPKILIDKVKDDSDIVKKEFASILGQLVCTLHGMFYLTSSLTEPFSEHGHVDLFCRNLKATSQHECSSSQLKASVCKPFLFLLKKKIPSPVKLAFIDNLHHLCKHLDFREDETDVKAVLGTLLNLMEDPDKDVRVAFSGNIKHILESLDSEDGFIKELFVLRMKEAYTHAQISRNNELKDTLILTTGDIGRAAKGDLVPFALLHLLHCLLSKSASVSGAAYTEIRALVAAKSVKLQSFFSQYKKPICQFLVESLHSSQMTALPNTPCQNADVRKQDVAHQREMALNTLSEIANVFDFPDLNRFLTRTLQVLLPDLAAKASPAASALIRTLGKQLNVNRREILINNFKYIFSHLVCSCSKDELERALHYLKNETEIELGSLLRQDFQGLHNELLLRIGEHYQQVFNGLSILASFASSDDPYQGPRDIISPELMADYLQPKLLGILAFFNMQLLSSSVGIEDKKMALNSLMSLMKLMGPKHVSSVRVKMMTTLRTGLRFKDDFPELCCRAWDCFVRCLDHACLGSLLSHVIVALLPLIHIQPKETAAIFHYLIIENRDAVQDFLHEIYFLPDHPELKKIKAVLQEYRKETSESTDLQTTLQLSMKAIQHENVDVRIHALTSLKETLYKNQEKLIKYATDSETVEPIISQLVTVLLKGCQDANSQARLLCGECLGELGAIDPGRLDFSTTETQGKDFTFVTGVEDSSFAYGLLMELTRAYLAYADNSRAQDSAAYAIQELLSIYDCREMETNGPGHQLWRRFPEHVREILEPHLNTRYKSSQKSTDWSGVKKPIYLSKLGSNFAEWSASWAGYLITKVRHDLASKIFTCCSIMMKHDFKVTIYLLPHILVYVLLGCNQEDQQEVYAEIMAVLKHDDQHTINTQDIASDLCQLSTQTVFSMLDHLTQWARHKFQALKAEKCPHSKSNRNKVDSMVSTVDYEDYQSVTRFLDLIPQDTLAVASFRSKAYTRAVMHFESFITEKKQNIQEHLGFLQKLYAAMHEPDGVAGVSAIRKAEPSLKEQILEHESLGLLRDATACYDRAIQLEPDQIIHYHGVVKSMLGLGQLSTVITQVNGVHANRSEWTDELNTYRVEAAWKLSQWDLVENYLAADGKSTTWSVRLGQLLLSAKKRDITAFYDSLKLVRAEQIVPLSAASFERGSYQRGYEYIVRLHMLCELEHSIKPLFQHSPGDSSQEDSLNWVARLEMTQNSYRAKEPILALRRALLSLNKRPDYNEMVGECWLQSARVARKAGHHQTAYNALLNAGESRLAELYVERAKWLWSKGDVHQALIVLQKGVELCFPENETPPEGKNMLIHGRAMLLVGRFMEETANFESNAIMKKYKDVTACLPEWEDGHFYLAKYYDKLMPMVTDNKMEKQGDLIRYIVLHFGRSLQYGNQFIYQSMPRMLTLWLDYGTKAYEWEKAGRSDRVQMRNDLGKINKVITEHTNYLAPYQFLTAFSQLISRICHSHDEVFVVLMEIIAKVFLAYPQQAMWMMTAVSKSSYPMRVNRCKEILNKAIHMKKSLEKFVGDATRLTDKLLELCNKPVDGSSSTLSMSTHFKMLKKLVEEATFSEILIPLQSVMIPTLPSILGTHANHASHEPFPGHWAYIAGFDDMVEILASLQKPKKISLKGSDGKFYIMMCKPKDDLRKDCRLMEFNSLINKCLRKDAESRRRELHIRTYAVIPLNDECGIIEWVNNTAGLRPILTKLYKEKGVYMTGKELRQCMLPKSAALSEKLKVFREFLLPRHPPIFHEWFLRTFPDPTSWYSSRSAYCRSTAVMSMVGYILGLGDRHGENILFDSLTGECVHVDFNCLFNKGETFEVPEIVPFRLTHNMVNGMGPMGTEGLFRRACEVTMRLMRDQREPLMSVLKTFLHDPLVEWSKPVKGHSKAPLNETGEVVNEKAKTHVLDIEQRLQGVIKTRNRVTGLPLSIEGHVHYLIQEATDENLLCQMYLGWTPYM
Conditions: not given
In short, it runs like this:
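Radiometric 33P incorporation by 5 nM full-length ATR into 800 μM target peptide with 10 μM [γ-33P]ATP, in 50 mM Tris/HCl pH 7.5, 10 mM MgCl2, 1 mM DTT, 7% DMSO, 25° C. Compound pre-incubated 10 minutes; reaction stopped after 24 hours, captured on phosphocellulose. Ki(app) from non-linear regression of initial rates.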
Consider `Nc1nn2cc(F)cnc2c1C(=O)Nc1cncc(F)c1C1CCN(C2COC2)CC1` [I-C-13, 2-amino-6-fluoro-N-(5-fluoro-4-(1-(oxetan-3-yl)piperidin-4-yl)pyridin-3-yl)pyrazolo[1,5-a]pyrimidine-3-carboxamide], for which the negative logarithm of the Ki (pKi) (in general, −log10 of the Ki, conventionally taken in molar units) was 5.30 to 6.00.
Turning to `CN(C)CC1(O)CCN(c2ccncc2NC(=O)c2c(N)nn3cc(Cl)cnc23)CC1` [I-N-36, 2-amino-6-chloro-N-(4-(4-((dimethylamino)methyl)-4-hydroxypiperidin-1-yl)pyridin-3-yl)pyrazolo[1,5-a]pyrimidine-3-carboxamide], the negative logarithm of the Ki (pKi) is 5.30 to 6.00.

Staying with this assay, now noted: Ki(app), 5 nM full-length ATR, 10 μM ATP, 25° C.
As for `Cc1nc(O[C@@H]2CCN(C)C2)ccc1-c1ccncc1NC(=O)c1c(N)nn2cc(F)cnc12` [I-C-41, (R)-2-amino-6-fluoro-N-(2-methyl-6-((1-methylpyrrolidin-3-yl)oxy)-[3,4′-bipyridin]-3′-yl)pyrazolo[1,5-a]pyrimidine-3-carboxamide], the pKi was 6.00 to 8.00.
Still for that read-out and setting: then `Nc1nn2cc(F)cnc2c1C(=O)Nc1cnccc1OC1CCS(=O)(=O)CC1` [I-O-45, 2-amino-N-(4-((1,1-dioxidotetrahydro-2H-thiopyran-4-yl)oxy)pyridin-3-yl)-6-fluoropyrazolo[1,5-a]pyrimidine-3-carboxamide], with 6.00 to 8.00.
Still for that read-out and setting: next, `Nc1nn2cc(Cl)cnc2c1C(=O)Nc1cnccc1OC1CNC1` [I-O-73, 2-amino-N-(4-(azetidin-3-yloxy)pyridin-3-yl)-6-chloropyrazolo[1,5-a]pyrimidine-3-carboxamide]: 6.00 to 8.00.
Still for that read-out and setting: next, `CN1CCC(Oc2ccncc2NC(=O)c2c(N)nn3cc(F)cnc23)CC1` [I-O-12, 2-amino-6-fluoro-N-(4-((1-methylpiperidin-4-yl)oxy)pyridin-3-yl)pyrazolo[1,5-a]pyrimidine-3-carboxamide]: 6.00 to 8.00; `CN1CCN(CC2CCN(c3c(F)cncc3NC(=O)c3c(N)nn4cc(F)cnc34)CC2)CC1=O` [I-N-171, 2-amino-6-fluoro-N-(5-fluoro-4-(4-((4-methyl-3-oxopiperazin-1-yl)methyl)piperidin-1-yl)pyridin-3-yl)pyrazolo[1,5-a]pyrimidine-3-carboxamide]: 6.00 to 8.00; `Nc1nn2cc(F)cnc2c1C(=O)Nc1cncc(F)c1N1CCC(OCCN2CCCC2)CC1` [I-N-167, 2-amino-6-fluoro-N-(5-fluoro-4-(4-(2-(pyrrolidin-1-yl)ethoxy)piperidin-1-yl)pyridin-3-yl)pyrazolo[1,5-a]pyrimidine-3-carboxamide]: 6.00 to 8.00.
With `Nc1nn2cc(F)cnc2c1C(=O)Nc1cnccc1-c1cccnc1` [I-C-15, N-([3,4′-bipyridin]-3′-yl)-2-amino-6-fluoropyrazolo[1,5-a]pyrimidine-3-carboxamide], the pKi is 6.00 to 8.00.
As for `COC1CN(C(=O)C2CCN(c3ccncc3NC(=O)c3c(N)nn4cc(F)cnc34)CC2)C1` [I-G-78, 2-amino-6-fluoro-N-(4-(4-(3-methoxyazetidine-1-carbonyl)piperidin-1-yl)pyridin-3-yl)pyrazolo[1,5-a]pyrimidine-3-carboxamide], the pKi was 6.00 to 8.00.
For the molecule `CC(C)N1CCC(C(=O)N2CCN(c3c(F)cncc3NC(=O)c3c(N)nn4cc(F)cnc34)CC2)C1` (centres unmarked) [I-N-206, 2-amino-6-fluoro-N-(5-fluoro-4-(4-(1-isopropylpyrrolidine-3-carbonyl)piperazin-1-yl)pyridin-3-yl)pyrazolo[1,5-a]pyrimidine-3-carboxamide], the pKi is 6.00 to 8.00.
The same measure, in the same setting: then `Nc1nn2cc(F)cnc2c1C(=O)Nc1cncc(F)c1N1CCC(S(=O)(=O)N2CCOCC2)CC1` [I-N-155, 2-amino-6-fluoro-N-(5-fluoro-4-(4-(morpholinosulfonyl)piperidin-1-yl)pyridin-3-yl)pyrazolo[1,5-a]pyrimidine-3-carboxamide], with 6.00 to 8.00; and `CN1CCC(NC(=O)C2CCN(c3c(F)cncc3NC(=O)c3c(N)nn4cc(F)cnc34)CC2)CC1` [I-G-20, 2-amino-6-fluoro-N-(5-fluoro-4-(4-((1-methylpiperidin-4-yl)carbamoyl)piperidin-1-yl)pyridin-3-yl)pyrazolo[1,5-a]pyrimidine-3-carboxamide], with 6.00 to 8.00.
Still for that read-out and setting: next, `CN(C)C1CN(C(=O)C2CCN(c3c(F)cncc3NC(=O)c3c(N)nn4cc(F)cnc34)CC2)C1` [I-G-22, 2-amino-N-(4-(4-(3-(dimethylamino)azetidine-1-carbonyl)piperidin-1-yl)-5-fluoropyridin-3-yl)-6-fluoropyrazolo[1,5-a]pyrimidine-3-carboxamide]: 6.00 to 8.00; `Cc1cncc(NC(=O)c2c(N)nn3cc(F)cnc23)c1N1CCN(C2CCOCC2)CC1` [I-N-123, 2-amino-6-fluoro-N-(5-methyl-4-(4-(tetrahydro-2H-pyran-4-yl)piperazin-1-yl)pyridin-3-yl)pyrazolo[1,5-a]pyrimidine-3-carboxamide]: 6.00 to 8.00.
On the same count and under the same terms, then `CN1CCN(c2c(NC(=O)c3c(N)nn4cc(F)cnc34)cncc2C2CC2)CC1` [I-N-5, 2-amino-N-(5-cyclopropyl-4-(4-methylpiperazin-1-yl)pyridin-3-yl)-6-fluoropyrazolo[1,5-a]pyrimidine-3-carboxamide], with 6.00 to 8.00; and `N#C[C@@H]1CCN(c2c(Cl)cncc2NC(=O)c2c(N)nn3cc(F)cnc23)C1` [I-N-285, (R)-2-amino-N-(5-chloro-4-(3-cyanopyrrolidin-1-yl)pyridin-3-yl)-6-fluoropyrazolo[1,5-a]pyrimidine-3-carboxamide], with 6.00 to 8.00; and `CS(=O)(=O)c1ccc(-c2ccncc2NC(=O)c2c(N)nn3cc(F)cnc23)cc1` [I-C-61, 2-amino-6-fluoro-N-(4-(4-(methylsulfonyl)phenyl)pyridin-3-yl)pyrazolo[1,5-a]pyrimidine-3-carboxamide], with 6.00 to 8.00.
As for `CC(C#N)c1cnc2c(C(=O)Nc3cnccc3N3CCN(C4COC4)CC3)c(N)nn2c1` (centres unmarked) [I-N-143, 2-amino-6-(1-cyanoethyl)-N-(4-(4-(oxetan-3-yl)piperazin-1-yl)pyridin-3-yl)pyrazolo[1,5-a]pyrimidine-3-carboxamide], the negative logarithm of the Ki (pKi) is 6.00 to 8.00.
Still for that read-out and setting: then `CN1CCN(C(=O)C2CCN(c3c(F)cncc3NC(=O)c3c(N)nn4cc(F)cnc34)CC2)CC12CC2` [I-G-38, 2-amino-6-fluoro-N-(5-fluoro-4-(4-(4-methyl-4,7-diazaspiro[2.5]octane-7-carbonyl)piperidin-1-yl)pyridin-3-yl)pyrazolo[1,5-a]pyrimidine-3-carboxamide], with 6.00 to 8.00.
The same measure, in the same setting: next, `CN1CCN(c2ccncc2NC(=O)c2c(N)nn3cc(CC#N)cnc23)CC1` [I-N-82, 2-amino-6-(cyanomethyl)-N-(4-(4-methylpiperazin-1-yl)pyridin-3-yl)pyrazolo[1,5-a]pyrimidine-3-carboxamide]: over 8.00; `Nc1nn2cc(Cl)cnc2c1C(=O)Nc1cnccc1N1CCCC(N)C1` (centres unmarked) [I-N-55, 2-amino-N-(4-(3-aminopiperidin-1-yl)pyridin-3-yl)-6-chloropyrazolo[1,5-a]pyrimidine-3-carboxamide]: 6.00 to 8.00; `CC(C#N)c1cnc2c(C(=O)Nc3cnccc3N3CCN(C)CC3)c(N)nn2c1` (centres unmarked) [I-N-78, 2-amino-6-(1-cyanoethyl)-N-(4-(4-methylpiperazin-1-yl)pyridin-3-yl)pyrazolo[1,5-a]pyrimidine-3-carboxamide]: 6.00 to 8.00.
Take `Nc1nn2cc(Cl)cnc2c1C(=O)Nc1cnccc1N1CCC(N2CC[C@H](F)C2)CC1` [I-N-103, (S)-2-amino-6-chloro-N-(4-(4-(3-fluoropyrrolidin-1-yl)piperidin-1-yl)pyridin-3-yl)pyrazolo[1,5-a]pyrimidine-3-carboxamide]: the pKi is 6.00 to 8.00.
On the same count and under the same terms, then `CN1CC[C@H](Oc2ccncc2NC(=O)c2c(N)nn3cc(F)cnc23)C1` [I-O-1, (S)-2-amino-6-fluoro-N-(4-((1-methylpyrrolidin-3-yl)oxy)pyridin-3-yl)pyrazolo[1,5-a]pyrimidine-3-carboxamide], with 6.00 to 8.00; and `N#CCc1cnc2c(C(=O)Nc3cnccc3OCC3CC3)c(N)nn2c1` [I-O-32, 2-amino-6-(cyanomethyl)-N-(4-(cyclopropylmethoxy)pyridin-3-yl)pyrazolo[1,5-a]pyrimidine-3-carboxamide], with over 8.00; and `CC1(S(C)(=O)=O)CCN(c2ccncc2NC(=O)c2c(N)nn3cc(F)cnc23)CC1` [I-N-243, 2-amino-6-fluoro-N-(4-(4-methyl-4-(methylsulfonyl)piperidin-1-yl)pyridin-3-yl)pyrazolo[1,5-a]pyrimidine-3-carboxamide], with 6.00 to 8.00.
On the same count and under the same terms, then `Nc1nn2cc(F)cnc2c1C(=O)Nc1cncc(F)c1N1CCN(C(=O)C23CCN(CC2)CC3)CC1` [I-N-134, 2-amino-6-fluoro-N-(5-fluoro-4-(4-(quinuclidine-4-carbonyl)piperazin-1-yl)pyridin-3-yl)pyrazolo[1,5-a]pyrimidine-3-carboxamide], with 6.00 to 8.00; and `CN1CCN(CC2CCN(c3c(F)cncc3NC(=O)c3c(N)nn4cc(F)cnc34)CC2)CC1` [I-N-150, 2-amino-6-fluoro-N-(5-fluoro-4-(4-((4-methylpiperazin-1-yl)methyl)piperidin-1-yl)pyridin-3-yl)pyrazolo[1,5-a]pyrimidine-3-carboxamide], with 6.00 to 8.00.
As for `Nc1nn2cc(F)cnc2c1C(=O)Nc1cncc(F)c1N1CCC(C(=O)N2CC(F)(F)C2)CC1` [I-G-73, 2-amino-N-(4-(4-(3,3-difluoroazetidine-1-carbonyl)piperidin-1-yl)-5-fluoropyridin-3-yl)-6-fluoropyrazolo[1,5-a]pyrimidine-3-carboxamide], the pKi is 6.00 to 8.00.
`CN1CCN(c2ccncc2NC(=O)c2c(N)nn3cc(F)cnc23)CC1=O` [I-N-209, 2-amino-6-fluoro-N-(4-(4-methyl-3-oxopiperazin-1-yl)pyridin-3-yl)pyrazolo[1,5-a]pyrimidine-3-carboxamide]: the negative logarithm of the Ki (pKi) is 6.00 to 8.00.
The same measure, in the same setting: then `Nc1nn2cc(F)cnc2c1C(=O)Nc1cnccc1-n1ccnc1` [I-N-7, N-(4-(1H-imidazol-1-yl)pyridin-3-yl)-2-amino-6-fluoropyrazolo[1,5-a]pyrimidine-3-carboxamide], with 6.00 to 8.00.
